{"source": "patent US20120252045A1", "about": "“METHOD OF ASSESSING ISLET FUNCTION” (priority 2009, published 2012)", "key": {"adult porcine islets": {"tested_on": "adult porcine islets", "details": "vs non-NaAz treated cells", "experimental": "(§1) Porcine islet OCRs were assessed in triplicate aliquots of 1000 IEQ. Controls comprising media alone and heat-killed islets (1000 IEQ ×3 incubated for 1 hour at 60° C.) were assayed in parallel. OCRs were measured using a fiber optic sensor oxygen monitoring system (Instech Laboratories Plymouth Meeting, Pa.), which quantifies the decrease in oxygen partial pressure (pO2) over time, as described by Papas et al., “A Stirred Microchamber for Oxygen Consumption Rate Measurements with Pancreatic Islet Cells,” Biotechnol Bioeng 2007; 98: 1071-1082. OCRs were standardized to the amount of DNA in each chamber (nmol/min-mgDNA), which was determined using a Quant-iT PicoGreen dsDNA kit (Molecular Probes, Eugene, Oreg.).\nThe experiment was repeated 3 times."}, "β-TC6 cells": {"tested_on": "β-TC6 cells", "details": "n=4", "experimental": "as §1\nReductions in OCR were assessed by comparing the effect of the NaAz on the OCR measurements to the OCR capability of non-treated cells. BTC6 cells and Hela cells were incubated on 150 mm culture dishes for 2 days in a 37° C. incubator with a 5% CO2 environment. The cells were then removed using 5 mM EDTA/PBS and washed once with PBS. The resulting cell pellet was resuspended in 5 mL of DMEM (Sigma) supplemented with 5% FCS (Sigma) and Penicillin/Streptomycin (Invitrogen). Cells were then incubated with various concentrations (0.01, 0.1, 1.0 and 10 mg/ml) of sodium azide (Sigma) for 10 minutes prior to measuring their oxygen consumption rates."}}, "note": "Read-outs that look alike come from different tables or passages of the source."}
{"smiles": "[N-]=[N+]=[N-]", "note": "[NaAz, sodium azide]", "values": [{"measurement": "reduction in OCR", "setting": "adult porcine islets; islets incubated with 0.1 mg/ml NaAz for 10 minutes", "value": 37.6, "unit": "%"}, {"measurement": "reduction in OCR", "setting": "adult porcine islets; islets incubated with 1 mg/ml NaAz for 10 minutes", "value": 59.7, "unit": "%"}, {"measurement": "reduction in OCR", "setting": "adult porcine islets; islets incubated with 10 mg/ml NaAz for 10 minutes", "value": 84.2, "unit": "%"}, {"measurement": "reduction in OCR", "setting": "β-TC6 cells; β-TC6 cells incubated with 0.1 mg/ml NaAz for 10 minutes", "value": "29.8±4.5", "unit": "%"}, {"measurement": "reduction in OCR", "setting": "β-TC6 cells; β-TC6 cells incubated with 1 mg/ml NaAz for 10 minutes", "value": "71.2±6.6", "unit": "%"}, {"measurement": "reduction in OCR", "setting": "β-TC6 cells; β-TC6 cells incubated with 10 mg/ml NaAz for 10 minutes", "value": "85.9±2.3", "unit": "%"}]}
